Measurements as given in patent US12411142B2, “Method for measuring the trimethylamine n-oxide production capacity in an individual” (NATIONAL TAIWAN UNIVERSITY, priority 2018, dated 2025).

Experiment: Pharmacokinetic study of the oral carnitine challenge test (OCCT)
Format: in vivo, human
Details: 13 volunteers
Experimental: Oral carnitine challenge test (OCCT): All the participants fasted overnight (>8 hours) before the OCCT. Fasting blood and spot urine samples were collected as baseline, and three tablets of L-carnitine fumarate (GNC) were then administered orally to the participants. Subsequently, the participants underwent time-series blood drawings with concurrent spot urine collections at 24 hours and 48 hours after the oral carnitine challenge. The participants were requested to provide urine samples within 2 hours of blood sample collections. All the participants were asked to avoid red meat, seafood and any medication during the period of the carnitine challenge test. The plasma and urine samples were aliquoted after centrifugation at 3000 rpm and stored in a freezer at −20° C. Ten carnitine tablets (GNC) were examined through HPLC to verify the amount of L-carnitine used in the OCCT. The mean dose of carnitine fumarate in each tablet was 693.5 (SD±63.2) mg (≈400 mg L-carnitine/tablet).
Pharmacokinetic study of plasma TMAO by oral administration of carnitine: Thirteen independent volunteers were recruited for a pharmacokinetic study of the OCCT. After the oral carnitine challenge, blood samples were collected at 4, 8, 12, 24, 36 and 48 hours. Six of the volunteers agreed to participate in the same pharmacokinetic test again 3 months later. All the volunteers signed informed consent waivers provided by the Institutional Review Board of National Taiwan University Hospital.
Plasma TMAO peaked in the interval between 24 hours and 48 hours of the OCCT: This example assumed that TMAO formation in blood occurred at approximately 24 hours of the OCCT based on the time required for bowel transit, microbial catabolism and the enzymatic reaction of hepatic FMO3 to convert the ingested carnitine into plasma TMAO. The example performed a pharmacokinetic study of the OCCT to confirm this hypothesis (FIG. 4). In the study, 13 participants received seven blood tests at indicated time points after ingestion of three tablets of L-carnitine fumarate (General Nutrition Centers (GNC), Pennsylvania, USA). […]

[1] = three tablets of L-carnitine fumarate orally

## C[N+](C)(C)C[C@H](O)CC(=O)[O-].O=C(O)/C=C/C(=O)O [L-carnitine fumarate]
Three tablets of L-carnitine fumarate (GNC, approximately 1200 mg L-carnitine) orally
  time at which plasma carnitine level peaked after OCCT: 4 h
[1]
  plasma TMA level after OCCT: very low concentration
  plasma γ-butyrobetaine level after OCCT: very low concentration
